Two compounds from patent US20210205329A1 (The University of North Carolina at Chapel Hill, priority 2018, published 2021) can be followed below.

Usually inhibition stands for the relative decrease from the control value, in per cent.

Molecules are shown by their SMILES. Read-outs that look alike come from different tables or passages of the source.

Assay [1] deals with MCP-1. Briefly: MCP-1 ELISA in P rat NAc. The format is in vivo. The note with it: 15 mg/kg I.P., 45 min. Here is the method:
ELISA. Brain tissue micropunches were lysed with Cellyte MT and the extracts were assayed for protein content by the BCA procedure (Pierce) and for MCP-1 using the rat MCP-1 ELISA kit (Raybiotech—ERC-MCP-1-CL; Norcross, Ga., USA) or for fracktalkine using the rat fractalkine ELISA kit (Raybiotech—ERC-CX3CL1-CL; Norcross, Ga., USA) as per manufacturer's instructions.
Next, potential sex differences were directly examined in baseline or 3α,5α-THP inhibition of MCP-1 and pIRF7 expression in female vs. male P rat NAc (FIG. 9). […] Systemic administration of 3α,5α-THP (15 mg/kg, I.P.) to naïve female and male P rats inhibited the expression of MCP-1 (40% in female rat NAc; 25% in male rat NAc). Likewise, 3α,5α-THP administration to naïve female and male P rats inhibited the expression of pIRF7 to the same extent, (55% in female rat NAc; 55% in male rat NAc).
For orientation: In an ELISA, binding on a coated surface is turned into a signal by an enzyme label.

Assay [2] has as its system LPS-activated TLR4 signal. Put plainly: LPS-activated TLR4 signaling in RAW264.7 cells (immunoblotting). The format is cell-based, mouse. As to conditions: for effect on TLR4 expression: 0.5 μM or 1 μM, LPS-treated RAW264.7, 24 hrs; for inhibition of LPS-increased pTAK1, TRAF6, NFκB p50, phospho-NF-κB p65, pCREB, HMGB1, MCP-1 and TNFα (overall): 0.5-1.0 μM; for inhibition of LPS-increased pTAK1, TRAF6, NFκB p50, phospho-NF-κB p65, pCREB, HMGB1, MCP-1 and TNFα (overall) / inhibition at 0.5 µM / inhibition at 1 µM / inhibition of LPS-induced NFκB p50 / inhibition of the effect of LPS activation of TLR4 on MCP-1 / inhibition of the effect of LPS activation on TRAF6 / inhibition of the effect of LPS activation on pTAK1 / inhibition of the effect of LPS on HMGB1 / inhibition of the effect of LPS on TNFα / inhibition of the effect of LPS on pCREB / inhibition of the effect of LPS on phospho-NF-κB p65: RAW264.7; for inhibition at 0.5 µM / inhibition at 1 µM: Mus musculus; for inhibition at 0.5 µM / inhibition at 1 µM / inhibition of LPS-induced NFκB p50 / inhibition of the effect of LPS activation of TLR4 on MCP-1 / inhibition of the effect of LPS activation on TRAF6 / inhibition of the effect of LPS activation on pTAK1 / inhibition of the effect of LPS on HMGB1 / inhibition of the effect of LPS on TNFα / inhibition of the effect of LPS on pCREB / inhibition of the effect of LPS on phospho-NF-κB p65: LPS 1 μg/ml, 24 hrs. Here is the method:
Cells and reagents. Mouse monocyte macrophage ceils (RAW264.7) that innately express the TLR4 receptor were obtained from American Type Culture Collection (Manassas, Va., USA). The cells were grown in Dulbecco's modified Eagle's medium (DMEM) (Gibco; Gaithersburg, Md., USA) supplemented with 10% fetal bovine serum (FBS, Gemini, West Sacramento, Calif., USA), 1% penicillin/streptomycin 100× (Gibco) at 37° C. in a 5% CO2 humidified atmosphere. The TLR4-specific ligand IPS was purchased from Sigma-Aldrich (St. Louis, Mo., USA) (Cat. #L3024) and added to the cultures (1 μg/ml) 24 hrs before cell collection.
Immunoblotting. The assay used for RAW264.7 cell lysates and co-immunoprecipitation was as previously described (Aurelian et al, 2016; June et al, 2015; Liu et al, 2011). RAW246.7 cells grown on T-75 flasks (n=5 flasks/group) were lysed with radioimmunoprecipitation (RIPA) buffer [20 mM Tris-HCl (pH 7.4), […], 1% Nonidet P-40 (Sigma, St. Louis, Mo., USA), 0.1% SDS (sodium dodecyl sulfate), 0.5% sodium deoxycholate] supplemented with protease and phosphatase inhibitor cocktails (Sigma). The total protein was determined by the bicinchoninic acid assay (BCA, Thermo Fisher Scientific, Waltham, Mass., USA, Cat. #23228 and Cat. #1859078). The proteins (100 μg/lane) were resolved by SDS-polyacrylamide gel electrophoresis using freshly prepared 16×18 cm gels and transferred to polyvinylidene fluoride membranes (PVDF, Bio-Rad, Cat. #162-0177). Blots were blocked with 5% Blotting-Grade Blocker (Bio-Rad, Cat. #1706404; for non-phosphorylated primary antibodies) or 5% BSA (for phosphorylated primary antibodies) for 2 hrs at room temperature (RT) and exposed to primary antibody overnight (4° C.), followed by horseradish peroxidase-labeled secondary antibodies for 1 h (room temp), immunoreactive bands were visualized with the Plus-ECL kit reagents (Perkin Elmer, Waltham, Mass., USA, Cat. #NEL105001EA) followed by exposure to high-performance chemiluminescence film (Hyperfilm ECL; Amersham). Quantitation was by densitometric scanning with a Bio-Rad GS-700 imaging densitometer. Blots were stripped and re-probed with different primary antibodies 3-5 times. Each densitometric measurement was divided by the corresponding β-Actin densitometric measurement and the results [n=5/group] are expressed as the mean β-Actin-adjusted densitometric units±SEM.
To examine whether the neurosteroids inhibit the LPS-activated TLR4 signal, RAW264.7 cells were treated with IPS (1 μg/mi; 24 hrs) in the absence or presence of 3α,5α-THP (0.5 μM, 1 μM) or pregnenolone (0.5 μM, 1 μM), and ceil extracts were assayed for expression of MyD88-dependent pathway members, by immunoblotting with antibodies to pTAK1, monocyte chemotactic protein (MCP-1), TRAF6, TLR4, and transcription factor NFκB p50 (Chattopadhyay S, et al. (2014). Cytokine Growth Factor Rev 25(5): 533-541; Irie T, et al. (2000). FEBS Lett 467(2-3): […]; Lu Y C, et al. (2008). Cytokine 42(2): 145-151).
Because the neurosteroids had relatively little effect on NFκB p50, the possibility that inhibition of other transcription factors and proinflammatory responses may be involved was considered. RAW246.7 ceils were treated as described above and protein extracts were immunoblotted with antibodies to phospho-NF-κB p65, pCREB, the proinflammatory cytokine tumor necrosis factor alpha (TNFα), and high mobility group box-1 (HMGB1), a highly conserved non-histone chromosomal protein, the translocation of which from the intra- to extra-cellular environment is a critical event in inflammatory responses. Indeed, HMGB1 is currently recognized as a cytokine secreted from activated macrophages and other inflammatory cells during the innate immune response and if is believed to function as a TLR4 ligand. […]
On the technique in general: In western blotting, separated proteins are transferred to a membrane and probed.

Consider `CC(=O)[C@H]1CC[C@H]2[C@@H]3CC[C@H]4C[C@H](O)CC[C@]4(C)[C@H]3CC[C@]12C` [3α,5α-THP, (3α,5α)3-hydroxypregnan-20-one], for which the “inhibition of MCP-1 expression in NAc” value in assay [1] (naïve female P rats) was 40%; in assay [1] (naïve male P rats), 25%. In addition, the “effect on TLR4 expression” value in assay [2] is reported as “did not affect”. Moreover, in assay [2], the “inhibition of LPS-increased pTAK1, TRAF6, NFκB p50, phospho-NF-κB p65, pCREB, HMGB1, MCP-1 and TNFα (overall)” value is on record as around 80%. Further, the inhibition at 0.5 µM in assay [2] (0.5 μM, read-out: inhibition of LPS-induced NFκB p50) was 19.8 ± 7.9%; in assay [2] (0.5 μM, read-out: inhibition of the effect of LPS activation of TLR4 on MCP-1), 81.5 ± 3.8%; in assay [2] (0.5 μM, read-out: inhibition of the effect of LPS activation on TRAF6), 54.5 ± 5.5%; in assay [2] (0.5 μM, read-out: inhibition of the effect of LPS activation on pTAK1), 37.8 ± 7.7%; in assay [2] (0.5 μM, read-out: inhibition of the effect of LPS on HMGB1), 88.9 ± 11%; in assay [2] (0.5 μM, read-out: inhibition of the effect of LPS on TNFα), 77.8 ± 7.3%. The inhibition at 0.5 µM in assay [2] (0.5 μM, read-out: inhibition of the effect of LPS on pCREB) came to 97.2 ± 1.9%; in assay [2] (0.5 μM, read-out: inhibition of the effect of LPS on phospho-NF-κB p65), 90.1 ± 8.5%. Besides, the inhibition at 1 µM in assay [2] (1.0 μM, read-out: inhibition of LPS-induced NFκB p50) is 38.3 ± 7.3%; in assay [2] (1.0 μM, read-out: inhibition of the effect of LPS activation of TLR4 on MCP-1), 85.2 ± 4.5%; in assay [2] (1.0 μM, read-out: inhibition of the effect of LPS activation on TRAF6), 55.3 ± 2.6%; in assay [2] (1.0 μM, read-out: inhibition of the effect of LPS activation on pTAK1), 71.7 ± 3.6%; in assay [2] (1.0 μM, read-out: inhibition of the effect of LPS on HMGB1), 58.6 ± 5.5%; in assay [2] (1.0 μM, read-out: inhibition of the effect of LPS on TNFα) it was 70.9 ± 3.5%. Moreover, the inhibition at 1 µM in assay [2] (1.0 μM, read-out: inhibition of the effect of LPS on pCREB) was 94.8 ± 3.4%; in assay [2] (1.0 μM, read-out: inhibition of the effect of LPS on phospho-NF-κB p65) it was 88.9 ± 10.8%.
Consider `CC(=O)[C@H]1CC[C@H]2[C@@H]3CC=C4C[C@@H](O)CC[C@]4(C)[C@H]3CC[C@]12C` [pregnenolone], for which, in assay [2], the “effect on TLR4 expression” value is recorded as “did not affect”; the “inhibition of LPS-increased pTAK1, TRAF6, NFκB p50, phospho-NF-κB p65, pCREB, HMGB1, MCP-1 and TNFα (overall)” value is recorded as around 80%. Further, in assay [2] (0.5 μM), the “inhibition of LPS-induced NFκB p50” value is 25.3±7.4%, the “inhibition of the effect of LPS activation of TLR4 on MCP-1” value was 77.3±7.3%, the “inhibition of the effect of LPS activation on TRAF6” value came to 73.7±1.3% and the “inhibition of the effect of LPS activation on pTAK1” value is 76.2±2.0%. Besides, in assay [2] (0.5 μM), the “inhibition of the effect of LPS on HMGB1” value turned out to be 52.0±9.8%, the “inhibition of the effect of LPS on TNFα” value turned out to be 61.7±3.6%, the “inhibition of the effect of LPS on pCREB” value was 84.8±9.9% and the “inhibition of the effect of LPS on phospho-NF-κB p65” value was 86.7±7.3%. For the same compound, in assay [2] (1.0 μM), the “inhibition of LPS-induced NFκB p50” value stood at 28.8±6.7%, the “inhibition of the effect of LPS activation of TLR4 on MCP-1” value is given as 85.8±4.4%, the “inhibition of the effect of LPS activation on TRAF6” value is given as 88.5±6.8% and the “inhibition of the effect of LPS activation on pTAK1” value was 95.2±2.5%. In addition, in assay [2] (1.0 μM), the “inhibition of the effect of LPS on HMGB1” value was found to be 57.5±12.8%, the “inhibition of the effect of LPS on TNFα” value is 65.1±7.7%, the “inhibition of the effect of LPS on pCREB” value was determined as 83.7±8.9% and the “inhibition of the effect of LPS on phospho-NF-κB p65” value was 88.1±5.5%.
